According to patent publication US11185531B2, “Arginine methyltransferase inhibitors and uses thereof” (Epizyme, Inc., priority 2013, dated 2021):

Tested on: mono-methyl arginine in RKO cells
Assay: RKO Methylation Assay, In Cell Western for mono-methyl arginine
Type: cell-based
Conditions: Homo sapiens, 72 hours, percent activation of mono-methyl arginine signal
Source text: RKO adherent cells were purchased from ATCC (American Type Culture Collection), Manassas, Va., USA. DMEM/Glutamax medium, penicillin-streptomycin, heat inactivated fetal bovine serum, 0.05% trypsin and D-PBS were purchased from Life Technologies, Grand Island, N.Y., USA. Odyssey blocking buffer, 800 CW goat anti-rabbit IgG (H+L) antibody, and Licor Odyssey infrared scanner were purchased from Licor Biosciences, Lincoln, Nebr., USA. Mono-methyl arginine antibody was purchased from Cell Signaling Technology, Danvers, Mass., USA. Methanol was purchased from VWR, Franklin, Mass., USA. 10% Tween 20 was purchased from KPL, Inc., Gaithersburg, Md., USA. DRAQ5 was purchased from Biostatus Limited, Leicestershire, UK.
RKO adherent cells were maintained in growth medium (DMEM/Glutamax medium supplemented with 10% v/v heat inactivated fetal bovine serum and 100 units/mL penicillin-streptomycin) and cultured at 37° C. under 5% CO2.
Cell Treatment, in Cell Western (ICW) for Detection of Mono-Methyl Arginine and DNA Content.
RKO cells were seeded in assay medium at a concentration of 20,000 cells per mL to a poly-D-lysine coated 384 well culture plate (BD Biosciences 356697) with 50 μL per well. Compound (100 nL) from a 96-well source plate was added directly to 384 well cell plate. Plates were incubated at 37° C., 5% CO2 for 72 hours. After three days of incubation, plates were brought to room temperature outside of the incubator for ten minutes and blotted on paper towels to remove cell media. 50 μL of ice cold 100% methanol was added directly to each well and incubated for 30 min at room temperature. After 30 min, plates were transferred to a Biotek EL406 plate washer and washed 2 times with 100 μL per well of wash buffer (IX PBS). Next 60 μL per well of Odyssey blocking buffer (Odyssey Buffer with 0.1% Tween 20 (v/v)) were added to each plate and incubated 1 hour at room temperature. Blocking buffer was removed and 20 μL per well of primary antibody was added (mono-methyl arginine diluted 1:200 in Odyssey buffer with 0.1% Tween 20 (v/v)) and plates were incubated overnight (16 hours) at 4° C. Plates were washed 5 times with 100 μL per well of wash buffer. Next 20 μL per well of secondary antibody was added (1:200 800 CW goat anti-rabbit IgG (H+L) antibody, 1:1000 DRAQ5 (Biostatus limited) in Odyssey buffer with 0.1% Tween 20 (v/v)) and incubated for 1 hour at room temperature. The plates were washed 5 times with 100 μL per well wash buffer then 2 times with 100 μL per well of water. Plates were allowed to dry at room temperature then imaged on the Licor Odyssey machine which measures integrated intensity at 700 nm and 800 nm wavelengths. Both 700 and 800 channels were scanned.
First, the ratio for each well was determined by:
Each plate included fourteen control wells of DMSO only treatment (minimum activation) as well as fourteen control wells for maximum activation treated with 20 μM of a reference compound. The average of the ratio values for each control type was calculated and used to determine the percent activation for each test well in the plate. Reference compound was serially diluted three-fold in DMSO for a total of nine test concentrations, beginning at 20 μM. Percent activation was determined and EC30 curves were generated using triplicate wells per concentration of compound.

`CNCCN(C)Cc1c[nH]nc1C1CCN(C(=O)Cc2ccccc2)CC1` [Compound 32] and `CNCCN(C)Cc1c[nH]nc1C1CCN(C(=O)C(C)C)CC1` [Compound 34] cannot be ordered by EC30: less than 3 µM for the first, less than 3 µM for the second.

Compared with `CN(CCN)Cc1n[nH]cc1C1CCCCC1` [Compound 33], `CN(CCN)Cc1c[nH]nc1C1CCCCC1` [Compound 22] is lower in EC30: 3.01 to 12 µM for the first, less than 3 µM for the second.

First: CN(CCN)Cc1n[nH]cc1C1CCC(N2CCOCC2)CC1 (stereo not drawn) [Compound 44, N^1-methyl-N^1-((4-(4-morpholinocyclohexyl)-1H-pyrazol-3-yl)methyl)ethane-1,2-diamine]
Second: CC1CCC(c2c[nH]nc2CN(C)CCN)CC1 (stereo not drawn) [Compound 35]
The EC30 of the first is higher: 3.01 to 12 µM for the first, less than 3 µM for the second.

`CC(C)c1n[nH]cc1CN(C)CCN` [Compound 21] and `Cc1n[nH]cc1CN(C)CCN` [Compound 30] cannot be ordered by EC30: greater than 12 µM for the first, greater than 12 µM for the second.

Compared with `CNCCN(C)Cc1c[nH]nc1C1CCN(C)CC1` [Compound 41], `CNCCN(C)Cc1c[nH]nc1C1CCN(CC(C)C)CC1` [Compound 39, N^1-((3-(1-isobutylpiperidin-4-yl)-1H-pyrazol-4-yl)methyl)-N^1,N^2-dimethylethane-1,2-diamine] is lower in EC30: greater than 12 µM for the first, less than 3 µM for the second.

`CN(CCN)Cc1c[nH]nc1/C=C/Cc1ccccc1` [Compound 24] and `CN(CCN)Cc1c[nH]nc1CCc1ccc(F)cc1` [Compound 23, N^1-((3-(4-fluorophenethyl)-1H-pyrazol-4-yl)methyl)-N^1-methylethane-1,2-diamine] cannot be ordered by EC30: less than 3 µM for the first, less than 3 µM for the second.

`CN(CCN)Cc1n[nH]cc1C1CCC(C)(C)CC1` [Compound 36] and `CN(CCN)Cc1c[nH]nc1C1CCC(C)(C)CC1` [Compound 38, N^1-((3-(4,4-dimethylcyclohexyl)-1H-pyrazol-4-yl)methyl)-N^1-methylethane-1,2-diamine] cannot be ordered by EC30: less than 3 µM for the first, less than 3 µM for the second.

`CN(CCN)Cc1c[nH]nc1C1CCCC1` [Compound 31] and `CN(CCN)Cc1c[nH]nc1C1CCC1` [Compound 26] cannot be ordered by EC30: greater than 12 µM for the first, greater than 12 µM for the second.

Compared with `CCCc1n[nH]cc1CN(C)CCN` [Compound 29], `CC1CCC(c2n[nH]cc2CN(C)CCN)CC1` (stereo not drawn) [Compound 37, N^1-methyl-N^1-((3-(4-methylcyclohexyl)-1H-pyrazol-4-yl)methyl)ethane-1,2-diamine] is lower in EC30: greater than 12 µM for the first, less than 3 µM for the second.

First: CN(CCN)Cc1c[nH]nc1C1=CCOCC1 [Compound 10]
Second: CN(CCN)Cc1c[nH]nc1C1=CCCC1 [Compound 25]
The EC30 of the first is higher: greater than 12 µM for the first, 3.01 to 12 µM for the second.

`CNCCN(C)Cc1c[nH]nc1C1CCNCC1` [Compound 42] gave an EC30 greater than 12 µM.
